Experimental data: patent publication US20240383898A1, “PYRIDO RING COMPOUND, PREPARATION METHOD THEREFOR, INTERMEDIATE, COMPOSITION, AND APPLICATION” (YIYOU BIOTECH (SHANGHAI) CO., LTD, priority 2021, published 2024)

Experiments:
JAK1 = biological target: T1, JAK1 (Homo sapiens, UniProt P23458); test: In vitro activity test of JAK1 kinase (Caliper EZ Reader conversion assay); assay type: biochemical; conditions: enzyme activity, 10 concentrations from 1000 nM, 3-fold dilution
T1 construct: purchased Carna 08-114
T1 sequence (P23458 whole entry, species assumed): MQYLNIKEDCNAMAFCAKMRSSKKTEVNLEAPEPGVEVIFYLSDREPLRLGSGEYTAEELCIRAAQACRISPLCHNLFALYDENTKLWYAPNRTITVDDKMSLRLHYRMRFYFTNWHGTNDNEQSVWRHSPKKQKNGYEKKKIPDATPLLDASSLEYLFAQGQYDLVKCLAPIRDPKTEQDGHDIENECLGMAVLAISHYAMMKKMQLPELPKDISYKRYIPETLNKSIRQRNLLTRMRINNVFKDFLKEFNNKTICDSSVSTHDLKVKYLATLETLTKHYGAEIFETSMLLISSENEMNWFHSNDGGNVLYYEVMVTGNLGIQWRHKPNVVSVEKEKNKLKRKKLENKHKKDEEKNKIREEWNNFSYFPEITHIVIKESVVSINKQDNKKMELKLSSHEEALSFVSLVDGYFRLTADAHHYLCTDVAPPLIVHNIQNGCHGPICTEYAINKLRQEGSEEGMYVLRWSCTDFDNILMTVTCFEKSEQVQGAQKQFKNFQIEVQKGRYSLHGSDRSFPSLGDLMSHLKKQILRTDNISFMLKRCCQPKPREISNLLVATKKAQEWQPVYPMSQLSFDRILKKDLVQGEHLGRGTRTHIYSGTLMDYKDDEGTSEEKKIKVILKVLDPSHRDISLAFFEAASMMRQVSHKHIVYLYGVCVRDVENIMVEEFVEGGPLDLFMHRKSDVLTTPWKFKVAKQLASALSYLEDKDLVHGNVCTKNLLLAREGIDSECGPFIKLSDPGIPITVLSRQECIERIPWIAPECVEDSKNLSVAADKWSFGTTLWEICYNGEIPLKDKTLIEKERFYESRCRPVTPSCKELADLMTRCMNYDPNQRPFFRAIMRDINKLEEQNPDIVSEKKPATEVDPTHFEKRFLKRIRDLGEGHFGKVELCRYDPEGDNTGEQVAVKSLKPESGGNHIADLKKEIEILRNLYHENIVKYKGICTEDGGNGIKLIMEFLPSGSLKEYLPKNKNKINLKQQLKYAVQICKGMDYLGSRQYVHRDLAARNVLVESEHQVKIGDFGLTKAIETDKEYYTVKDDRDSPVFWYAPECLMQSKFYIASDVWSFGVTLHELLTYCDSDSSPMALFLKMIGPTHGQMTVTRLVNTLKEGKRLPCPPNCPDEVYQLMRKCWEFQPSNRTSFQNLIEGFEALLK
Procedure: (§1) In Vitro Activity Test of JAK1 and JAK2 Kinases
(§2) • Centrifuge (manufacturer: Eppendorf, model: 5430) • ELISA Instrument (Manufacturer: Perkin Elmer, Model: Caliper EZ Reader 1I) • Echo 550 (Manufacturer: Labcyte, Model: Echo 550)
(§3) (1) Prepare 1 Kinase buffer.
(§4) (2) Compound concentration gradient preparation: The test compound was tested at 1000 nM, 3-fold dilution, 10 concentrations, two-well assay, and configured to a 100-fold final concentration in a 384-well plate. 250 nl of the test compound was then transferred to the 384 reaction plate using Echo550. 250 nl of 100% DMSO was added to each of the negative and positive control wells.
(§5) (3) Prepare 2.5 times the final concentration of kinase solution with 1×Kinase buffer.
(§6) (4) Add 10 μL of 2.5 times the final concentration of kinase solution to the compound wells and 10 μL of 1×Kinase buffer to the negative control wells.
(§7) (5) Centrifuge at 1000 rpm for 30 seconds, mix well with shaking, and incubate at room temperature for 10 minutes.
(§8) (6) Prepare a 25/15-fold final concentration of mixture of ATP and Kinase substrate with 1×Kinase buffer.
(§9) (7) Add 15 μL of a mixture of 25/15 times the final concentration of ATP and substrate to start the reaction.
(§10) (8) Centrifuge the 384-well plate at 1000 rpm for 30 seconds, mix well with shaking, and incubate at room temperature for an appropriate amount of time.
(§11) (9) Stop the kinase reaction by adding 30 μL of termination solution, centrifuge at 1000 rpm for 30 seconds, and mix well with shaking.
(§12) (10) Read the conversion rate with Caliper EZ Reader.
(§13) where: Conversion %_sample is the conversion rate reading of the sample-, Conversion %_min: the average value of the negative control wells, representing the conversion reading of the wells without enzyme activity: Conversion %-max: the average value of the positive control wells, representing the conversion reading of the wells without compound inhibition.
(§14) The log value of concentration was used as the X-axis and the percentage inhibition as the Y-axis, and the function of the analytical software GraphPad Prism 5; log(inhibitor) vs. response -Variable slope, was used to lit dose-effect curves to obtain the IC50) values of each compound on enzyme activity.
(§15) The formula is Y=Bottom+(Top-Bottom)/(1+10^((LogIC50-X)*HillSlope))
(§16) The 1C50 data are specified in Table 1.

JAK2 = biological target: T2, JAK2 (Homo sapiens, UniProt O60674); test: In vitro activity test of JAK2 kinase (Caliper EZ Reader conversion assay); assay type: biochemical; conditions: enzyme activity, 10 concentrations from 1000 nM, 3-fold dilution
T2 construct: purchased Carna 08-045
T2 sequence (O60674 whole entry, species assumed): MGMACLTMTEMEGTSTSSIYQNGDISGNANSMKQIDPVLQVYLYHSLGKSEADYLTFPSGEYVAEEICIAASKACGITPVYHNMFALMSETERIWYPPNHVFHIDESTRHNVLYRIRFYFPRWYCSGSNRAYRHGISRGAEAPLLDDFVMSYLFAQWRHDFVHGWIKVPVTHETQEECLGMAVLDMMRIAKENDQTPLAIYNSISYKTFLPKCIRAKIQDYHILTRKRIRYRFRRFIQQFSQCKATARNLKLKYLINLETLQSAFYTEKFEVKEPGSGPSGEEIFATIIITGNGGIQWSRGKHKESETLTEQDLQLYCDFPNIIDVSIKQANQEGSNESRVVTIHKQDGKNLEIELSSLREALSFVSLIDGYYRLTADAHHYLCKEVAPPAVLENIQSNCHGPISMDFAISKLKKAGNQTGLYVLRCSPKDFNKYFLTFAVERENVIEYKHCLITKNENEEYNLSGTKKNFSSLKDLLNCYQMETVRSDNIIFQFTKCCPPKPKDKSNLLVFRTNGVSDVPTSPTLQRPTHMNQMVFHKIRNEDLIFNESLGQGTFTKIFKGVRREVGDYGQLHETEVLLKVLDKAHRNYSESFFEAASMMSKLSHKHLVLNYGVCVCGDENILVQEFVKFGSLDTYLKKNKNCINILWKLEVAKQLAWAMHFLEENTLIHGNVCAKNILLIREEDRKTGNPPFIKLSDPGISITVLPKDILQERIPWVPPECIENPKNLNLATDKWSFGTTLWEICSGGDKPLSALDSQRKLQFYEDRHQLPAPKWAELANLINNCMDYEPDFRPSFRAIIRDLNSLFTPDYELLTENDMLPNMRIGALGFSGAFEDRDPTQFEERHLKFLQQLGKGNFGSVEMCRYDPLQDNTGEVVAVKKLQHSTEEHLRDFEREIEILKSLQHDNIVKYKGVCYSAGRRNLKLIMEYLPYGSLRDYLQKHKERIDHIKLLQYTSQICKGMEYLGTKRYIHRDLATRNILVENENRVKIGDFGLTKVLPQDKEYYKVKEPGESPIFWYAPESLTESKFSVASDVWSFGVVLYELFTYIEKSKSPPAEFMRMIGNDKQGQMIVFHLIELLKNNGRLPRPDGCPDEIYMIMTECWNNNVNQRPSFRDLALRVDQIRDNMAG
Procedure: as §1, §2, §3, §4, §5, §6, §7, §8, §9, §10, §11, §12, §13, §14, §15, §16

Row | Structure (SMILES) | IC50 (JAK1) [nM] | IC50 (JAK2) [nM]
1 | CCCS(=O)(=O)N1CCC(n2c(-c3ncc[nH]3)nc3cnc4[nH]ccc4c32)C1 (stereo not drawn) [LXS18, 2-(1H-imidazol-2-yl)-1-(1-(propylsulfonyl)pyrrolidin-3-yl)-1,6-dihydroimidazo[4,5-d]pyrrolo[2,3-b]pyridine] | 10 to 100 | 10 to 100
2 | O=S(=O)(N1CCC(n2c(-c3ncc[nH]3)nc3cnc4[nH]ccc4c32)C1)C(F)(F)F (stereo not drawn) [LXS19, 2-(1H-imidazol-2-yl)-1-(1-((trifluoromethyl)sulfonyl)pyrrolidin-3-yl)-1,6-dihydroimidazo[4,5-d]pyrrolo[2,3-b]pyridine] | 10 to 100 | 10 to 100
3 | CCCS(=O)(=O)N1CCC(n2c(-c3ccccc3O)nc3cnc4[nH]ccc4c32)C1 (stereo not drawn) [LXS30, 2-(1-(1-(propylsulfonyl)pyrrolidin-3-yl)-1,6-dihydroimidazo[4,5-d]pyrrolo[2,3-b]pyridin-2-yl)phenol] | 100 to 1000 | 100 to 1000
4 | CCCS(=O)(=O)N1CCC(n2c(-c3ccc(O)cc3O)nc3cnc4[nH]ccc4c32)C1 (stereo not drawn) [LXS31, 4-(1-(1-(Propylsulfonyl)pyrrolidin-3-yl)-1,6-dihydroimidazo[4,5-d]pyrrolo[2,3-b]pyridin-2-yl)benzene-1,3-diol] | 100 to 1000 | 100 to 1000
5 | CCCS(=O)(=O)N1CCC(n2c(-c3cccc(O)c3)nc3cnc4[nH]ccc4c32)C1 (stereo not drawn) [LXS32, 3-(1-(1-(propylsulfonyl)pyrrolidin-3-yl)-1,6-dihydroimidazo[4,5-d]pyrrolo[2,3-b]pyridin-2-yl)phenol] | 10 to 100 | < 10
6 | C=CC(=O)N1CCC(n2c(-c3ccc(O)cc3O)nc3cnc4[nH]ccc4c32)C1 (stereo not drawn) [LXS33, 1-(3-(2-(2,4-Dihydroxyphenyl)imidazo[4,5-d]pyrrolo[2,3-b]pyridin-1(6H)-yl)pyrrolidin-1-yl)prop-2-en-1-one] | 10 to 100 | 10 to 100
7 | O=C(NCC(F)(F)F)N1CCC(n2c(-c3cccc(O)c3)nc3cnc4[nH]ccc4c32)C1 (stereo not drawn) [LXS34, 3-(2-(3-Hydroxyphenyl)imidazo[4,5-d]pyrrolo[2,3-b]pyridin-1(6H)-yl)-N-(2,2,2-trifluoroethyl)pyrrolidine-1-carboxamide] | 100 to 1000 | 100 to 1000
8 | O=S(=O)(C1CC1)N1CCC(n2c(-c3ccc(CO)o3)nc3cnc4[nH]ccc4c32)C1 (stereo not drawn) [LXS45, (5-(1-(1-(cyclopropylsulfonyl)pyrrolidin-3-yl)-1,6-dihydroimidazo[4,5-d]pyrrolo[2,3-b]pyridin-2-yl)furan-2-yl)methanol] | 10 to 100 | 10 to 100
9 | N#CCCn1cc(-n2c(-c3ccc(CO)o3)nc3cnc4[nH]ccc4c32)cn1 [LXS46, 3-(4-(2-(5-(Hydroxymethyl)furan-2-yl)imidazo[4,5-d]pyrrolo[2,3-b]pyridin-1(6H)-yl)-1H-pyrazol-1-yl)propanenitrile] | 10 to 100 | < 10
10 | CCCS(=O)(=O)N1CCC(n2c(-c3cccnc3N)nc3cnc4[nH]ccc4c32)C1 (stereo not drawn) [LXS47, 3-(1-(1-(propylsulfonyl)pyrrolidin-3-yl)-1,6-dihydroimidazo[4,5-d]pyrrolo[2,3-b]pyridin-2-yl)pyridin-2-amine] | 100 to 1000 | 100 to 1000
11 | C[C@@H](O)c1nc2cnc3[nH]ccc3c2n1C1CCN(CC#N)C1 (stereo partly drawn) [LXS48, 2-(3-(2-((R)-1-Hydroxyethyl)imidazo[4,5-d]pyrrolo[2,3-b]pyridin-1(6H)-yl)pyrrolidin-1-yl)acetonitrile] | 10 to 100 | 100 to 1000
12 | C[C@@H](O)c1nc2cnc3[nH]ccc3c2n1C1CCN(CCC#N)C1 (stereo partly drawn) [LXS49, 3-(3-(2-((R)-1-Hydroxyethyl)imidazo[4,5-d]pyrrolo[2,3-b]pyridin-1(6H)-yl)pyrrolidin-1-yl)propanenitrile] | 10 to 100 | 100 to 1000
13 | Cc1ccc(-c2nc3cnc4[nH]ccc4c3n2-c2cnn(CCC#N)c2)o1 [LXS50, 3-(4-(2-(5-Methylfuran-2-yl)imidazo[4,5-d]pyrrolo[2,3-b]pyridin-1(6H)-yl)-1H-pyrazol-1-yl)propanenitrile] | 100 to 1000 | < 10
14 | N#CCCN1CCC(n2c(-c3ccc(CO)o3)nc3cnc4[nH]ccc4c32)C1 (stereo not drawn) [LXS51, 3-(3-(2-(5-(Hydroxymethyl)furan-2-yl)imidazo[4,5-d]pyrrolo[2,3-b]pyridin-1(6H)-yl)pyrrolidin-1-yl)propanenitrile] | 10 to 100 | 10 to 100
15 | N#CCN1CCC(n2c(-c3ccc(CO)o3)nc3cnc4[nH]ccc4c32)C1 (stereo not drawn) [LXS52, 2-(3-(2-(5-(hydroxymethyl)furan-2-yl)imidazo[4,5-d]pyrrolo[2,3-b]pyridin-1(6H)-yl)pyrrolidin-1-yl)acetonitrile] | 100 to 1000 | 10 to 100
16 | C[C@@H](O)c1nc2cnc3[nH]ccc3c2n1-c1ccc(C#N)cc1 [LXS54, (R)-4-(2-(1-Hydroxyethyl)imidazo[4,5-d]pyrrolo[2,3-b]pyridin-1(6H)-yl)benzonitrile] | 100 to 1000 | 100 to 1000
17 | N#Cc1ccc(-n2c(-c3ccc(CO)o3)nc3cnc4[nH]ccc4c32)cc1 [LXS55, 4-(2-(5-(Hydroxymethyl)furan-2-yl)imidazo[4,5-d]pyrrolo[2,3-b]pyridin-1(6H)-yl)benzonitrile] | 100 to 1000 | 100 to 1000
18 | N#Cc1ccc(-n2c(-c3cccc(O)c3)nc3cnc4[nH]ccc4c32)cc1 [LXS56, 4-(2-(3-Hydroxyphenyl)imidazo[4,5-d]pyrrolo[2,3-b]pyridin-1(6H)-yl)benzonitrile] | 10 to 100 | 100 to 1000
19 | CS(=O)(=O)c1ccc(C2Nc3cnc4[nH]ccc4c3N2c2ccc(C#N)cc2)cc1 (stereo not drawn) [LXS57, 4-(2-(4-(Methylsulfonyl)phenyl)-2,3-dihydroimidazo[4,5-d]pyrrolo[2,3-b]pyridin-1(6H)-yl)benzonitrile] | 100 to 1000 | 100 to 1000
20 | C[C@@H](O)c1nc2cnc3[nH]ccc3c2n1[C@@H]1CCN(CCC#N)C1 [LXS58, 3-((R)-3-(2-((R)-1-Hydroxyethyl)imidazo[4,5-d]pyrrolo[2,3-b]pyridin-1(6H)-yl)pyrrolidin-1-yl)propanenitrile] | 10 to 100 | 10 to 100
21 | C[C@@H](O)c1nc2cnc3[nH]ccc3c2n1[C@H]1CCN(CCC#N)C1 [LXS59, 3-((S)-3-(2-((R)-1-hydroxyethyl)imidazo[4,5-d]pyrrolo[2,3-b]pyridin-1(6H)-yl)pyrrolidin-1-yl)propanenitrile] | 10 to 100 | 100 to 1000
22 | CS(=O)(=O)c1ccc(C2Nc3cnc4[nH]ccc4c3N2C2CCN(CCC#N)C2)cc1 (stereo not drawn) [LXS60, 3-(3-(2-(4-(Methylsulfonyl)phenyl)-2,3-dihydroimidazo[4,5-d]pyrrolo[2,3-b]pyridin-1(6H)-yl)pyrrolidin-1-yl)propanenitrile] | 10 to 100 | 10 to 100
23 | C[C@@H](O)c1nc2cnc3[nH]ccc3c2n1C1CCN(C(=O)C2(C#N)CC2)C1 (stereo partly drawn) [LXS61, 1-(3-(2-((R)-1-Hydroxyethyl)imidazo[4,5-d]pyrrolo[2,3-b]pyridin-1(6H)-yl)pyrrolidin-1-carbonyl)cyclopropanecarbonitrile] | 100 to 1000 | 100 to 1000
24 | CCS(=O)(=O)N1CC(CC#N)(n2cc(-n3c(-c4ccc(C)s4)nc4cnc5[nH]ccc5c43)cn2)C1 [LXS62, 2-(1-(Ethylsulfonyl)-3-(4-(2-(5-methylthien-2-yl)imidazo[4,5-d]pyrrolo[2,3-b]pyridin-1(6H)-yl)-1H-pyrazol-1-yl)azetidin-3-yl)acetonitrile] | 100 to 1000 | < 10
